Data from patent publication US12479840B2, “HMG-CoA reductase degradation inducing compound” (Uppthera, priority 2020, dated 2025).

The compounds below were run against T1, HMG-CoA reductase (Homo sapiens, UniProt P04035) (assay: HMG-CoA reductase (HMGCR) degradation in HepG2 cells by western blotting). Settings: treated for 18 hours, ratio of HMG-CoA reductase to GAPDH, read-out: DC50.
T1 construct: endogenous in cells; host or cells: HepG2 (Korea Cell Line Bank)
T1 sequence (P04035 1-888): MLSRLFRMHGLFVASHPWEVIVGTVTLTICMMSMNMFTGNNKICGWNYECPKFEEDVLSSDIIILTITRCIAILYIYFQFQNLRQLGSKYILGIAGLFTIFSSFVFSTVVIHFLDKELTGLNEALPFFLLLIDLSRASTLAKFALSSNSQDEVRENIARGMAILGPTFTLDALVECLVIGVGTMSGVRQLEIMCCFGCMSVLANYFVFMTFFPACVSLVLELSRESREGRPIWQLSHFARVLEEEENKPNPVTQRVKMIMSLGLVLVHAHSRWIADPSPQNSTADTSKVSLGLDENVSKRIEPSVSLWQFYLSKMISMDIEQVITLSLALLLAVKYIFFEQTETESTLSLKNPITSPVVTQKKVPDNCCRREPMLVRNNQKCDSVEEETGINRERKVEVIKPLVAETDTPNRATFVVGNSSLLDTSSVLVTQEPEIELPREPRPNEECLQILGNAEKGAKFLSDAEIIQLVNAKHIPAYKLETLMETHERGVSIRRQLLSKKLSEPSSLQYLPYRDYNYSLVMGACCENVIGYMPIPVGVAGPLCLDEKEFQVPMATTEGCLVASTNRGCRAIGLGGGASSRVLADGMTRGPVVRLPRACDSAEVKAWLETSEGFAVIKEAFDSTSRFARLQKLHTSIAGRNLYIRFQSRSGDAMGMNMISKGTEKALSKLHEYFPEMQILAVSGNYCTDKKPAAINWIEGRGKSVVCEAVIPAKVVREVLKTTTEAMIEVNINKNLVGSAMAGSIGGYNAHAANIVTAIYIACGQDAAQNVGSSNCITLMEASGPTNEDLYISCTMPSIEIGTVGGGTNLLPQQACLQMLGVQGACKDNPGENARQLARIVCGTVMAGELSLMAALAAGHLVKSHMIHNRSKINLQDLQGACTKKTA
Type: cell-based
Procedure: HepG2, a human liver cancer cell line, was purchased from the Korea Cell Line Bank (KCLB), Seoul, Korea. The passage in cell culture was maintained at P105 to P110.
The compounds of the present invention were completely dissolved in DMSO and used in the experiment. 2×10^5 cells were seeded for each well of a 12-well plate (SPL), and the cells were cultured in the culture medium in a total volume of 2 ml. Each of the compounds of the present invention and comparative compounds was diluted three folds from the highest concentration of 3 μM to the lowest concentration in 10 points and treated for 18 hours.
Each of the compounds the present invention and comparative compounds was diluted three folds from the highest concentration of 3 μM to the lowest concentration of […] in 10 points and was treated for 18 hours.
For SDS-PAGE and Western blotting, 1×RIPA lysis buffer (Rockland, Cat. No. MB-030-0050; Lot no. 39751), 100× Protease Inhibitor Cocktail (Quartett, Cat. No. PPI1015; Lot no. PCO50038424), Pierce™ BCA protein assay kit (ThermoScientific, Cat. No. 23225; Lot no. UC276876), albumin standard (ThermoScientific, Cat. No. 23209; Lot no. UB269561), 4-15% Mini-PROTEAN TGX stain-free gel (Bio-rad, Cat. No. 4568085; Lot no. L007041B), 10× Tris/Glycine/SDS buffer (Bio-rad, Cat. No. 1610732; Lot no. 10000044375B); 10×TBS (Bio-rad, Cat. No. 1706435; Lot no. 1000045140B), 10% Tween 20 (Cat. No. 1610781; Lot no. L004152B), Color protein standard broad range (NEB, Cat. No. P7719S; Lot no. 10040349), 4× Laemmli sample buffer (Bio-rad, Cat. No. 1610747; Lot no. L004133B), β-mercaptoethanol (Sigma-Aldrich, Cat. No. M3148; Lot no. 60-24-2), SuperBlock™ T20 (TBS) blocking buffer (ThermoScientific, Cat. No. 37536; Lot no. UC282578), 1M sodium azide solution (Sigma-Aldrich, Cat. No. 08591-1 mL-F; Lot no. BCBV4989), α-Rabbit pAb to Ms IgG (abcam, Cat. No. ab97046; Lot no. GR3252115-1), α-Goat pAb to Rb IgG (CST, Cat. No. 7074S; Lot no. 28), α-GAPDH (abcam, Cat. No. ab8245), α-HMGCR (GeneTex, Cat. No. GTX54088; Lot no. 821903509), ECL™ Prime western blotting reagents (GE Healthcare, Cat. No. RPN2232; Lot no. 17001655), Ponceau S solution (Sigma-Aldrich, Cat. No. P7170; Lot no. SLBV4112), Difco™ Skim milk (BD, Cat. No. 232100; Lot no. 8346795), and iBlot® 2 NC Regular stacks (Invitrogen, Cat. No. IB23001; Lot no. 2NR110619-02), were used.
For cell harvesting, the cells were first separated from the plate using trypsin and then washed with the medium and PBS. Specifically, the medium was suctioned off and washed with 1 mL of PBS, and PBS was suctioned off. The cells were treated with 0.5 mL TrypLE™ Express at 37° C. for 7 minutes to separate the cells, and then 0.5 mL of complete medium was added to collect 1 mL of cell culture solution. Then, 1 mL of the cell collection solution was centrifuged at 8,000 rpm for 120 seconds, and the supernatant was removed. After washing with 0.2 mL of PBS, the PBS was removed.
For cell lysis, a lysis buffer was added and cell debris was removed to obtain a cell lysate. Specifically, the cells were treated with 70 μL of 1×RIPA buffer containing a protease inhibitor and incubated for 30 minutes on ice. Then, the cells were centrifuged at 4° C. and 15,000 rpm for 10 minutes to obtain a cell lysate.
Then, a standard curve was obtained using the BCA assay, and the protein mass in the lysate was quantified by substituting the curve. The mixture was incubated at 37° C. for 30 minutes using 20 μL of standard or sample solution, and 200 μL of BCA or Bradford solution, and measured at 562 nm absorbance. Samples were prepared by adding 4× sample buffer so that the quantity of protein added to each well was 15 μg.
Sodium dodecyl sulfate polyacrylamide gel electrophoresis (SDS-PAGE) was performed by setting a running time of 100 minutes at 120 V on a 4-15% Mini-PROTEAN TGX stain-free gel (15 well). Transferring was performed on iBlot® 2 NC Mini stacks at P0 mode of the dry blotting system. […]

Row | Compound | DC50 [nM]
1 | Cc1ncsc1-c1ccc(CNC(=O)[C@@H]2C[C@@H](O)CN2C(=O)[C@@H](NC(=O)COCCOCCNC(=O)CCC(C)(C)C(=O)O[C@H]2C[C@@H](C)C=C3C=C[C@H](C)[C@H](CC[C@@H]4C[C@@H](O)CC(=O)O4)[C@H]32)C(C)(C)C)cc1 [Compound 9, (S)-(1S,3R,7S,8S,8aR)-8-(2-((2R,4R)-4-hydroxy-6-oxotetrahydro-2H-pyran-2-yl)ethyl)-3,7-dimethyl-1,2,3,7,8,8a-hexahydronaphthalen-1-yl 3-((2S,4R)-4-hydroxy-2-((4-(4-methylthiazol-5-yl)benzyl)carbamoyl)pyrrolidine-1-carbonyl)-2,2,17,17-tetramethyl-5,14-dioxo-7,10-dioxa-4,13-diazaoctadecan-18-oate] | < 50
2 | Cc1ncsc1-c1ccc(CNC(=O)[C@@H]2C[C@@H](O)CN2C(=O)[C@@H](NC(=O)COCCOCCOCCNC(=O)CCC(C)(C)C(=O)O[C@H]2C[C@@H](C)C=C3C=C[C@H](C)[C@H](CC[C@@H]4C[C@@H](O)CC(=O)O4)[C@H]32)C(C)(C)C)cc1 [Compound 10] | < 50
3 | Cc1ncsc1-c1ccc(CNC(=O)[C@@H]2C[C@@H](O)CN2C(=O)[C@@H](NC(=O)COCCOCCOCCOCCNC(=O)CCC(C)(C)C(=O)O[C@H]2C[C@@H](C)C=C3C=C[C@H](C)[C@H](CC[C@@H]4C[C@@H](O)CC(=O)O4)[C@H]32)C(C)(C)C)cc1 [Compound 11, (S)-(1S,3R,7S,8S,8aR)-8-(2-((2R,4R)-4-hydroxy-6-oxotetrahydro-2H-pyran-2-yl)ethyl)-3,7-dimethyl-1,2,3,7,8,8a-hexahydronaphthalen-1-yl 3-((2S,4R)-4-hydroxy-2-((4-(4-methylthiazol-5-yl)benzyl)carbamoyl)pyrrolidine-1-carbonyl)-2,2,23,23-tetramethyl-5,20-dioxo-7,10,13,16-tetraoxa-4,19-diazatetracosan-24-oate] | < 50
4 | Cc1ncsc1-c1ccc(CNC(=O)[C@@H]2C[C@@H](O)CN2C(=O)[C@@H](NC(=O)COCCOCCOCCOCCOCCNC(=O)CCC(C)(C)C(=O)O[C@H]2C[C@@H](C)C=C3C=C[C@H](C)[C@H](CC[C@@H]4C[C@@H](O)CC(=O)O4)[C@H]32)C(C)(C)C)cc1 [Compound 12, (S)-(1S,3R,7S,8S,8aR)-8-(2-((2R,4R)-4-hydroxy-6-oxotetrahydro-2H-pyran-2-yl)ethyl)-3,7-dimethyl-1,2,3,7,8,8a-hexahydronaphthalen-1-yl 3-((2S,4R)-4-hydroxy-2-((4-(4-methylthiazol-5-yl)benzyl)carbamoyl)pyrrolidine-1-carbonyl)-2,2,26,26-tetramethyl-5,23-dioxo-7,10,13,16,19-pentaoxa-4,22-diazaheptacosan-27-oate] | < 50
5 | C[C@H]1C=C2C=C[C@H](C)[C@H](CC[C@H]3C[C@H](O)CC(=O)O3)[C@H]2[C@@H](OC(=O)NCCOCCOCCOCC(=O)NCC(C)(C)C)C1 [Compound 13, (1S,3R,7S,8S,8aR)-8-(2-((2S,4S)-4-hydroxy-6-oxotetrahydro-2H-pyran-2-yl)ethyl)-3,7-dimethyl-1,2,3,7,8,8a-hexahydronaphthalen-1-yl (14,14-dimethyl-11-oxo-3,6,9-trioxa-12-azapentadecyl) carbamate] | > 500
6 | Cc1ncsc1-c1ccc(CNC(=O)[C@@H]2C[C@@H](O)CN2C(=O)[C@@H](NC(=O)COCCNC(=O)O[C@H]2C[C@@H](C)C=C3C=C[C@H](C)[C@H](CC[C@@H]4C[C@@H](O)CC(=O)O4)[C@H]32)C(C)(C)C)cc1 [Compound 14, (1S,3R,7S,8S,8aR)-8-(2-((2R,4R)-4-hydroxy-6-oxotetrahydro-2H-pyran-2-yl)ethyl)-3,7-dimethyl-1,2,3,7,8,8a-hexahydronaphthalen-1-yl (2-(2-(((S)-1-((2S,4R)-4-hydroxy-2-((4-(4-methylthiazol-5-yl)benzyl)carbamoyl)pyrrolidin-1-yl)-3,3-dimethyl-1-oxobutan-2-yl)amino)-2-oxoethoxy)ethyl)carbamate] | 50 to 500
7 | Cc1ncsc1-c1ccc(CNC(=O)[C@@H]2C[C@@H](O)CN2C(=O)[C@@H](NC(=O)COCCOCCNC(=O)O[C@H]2C[C@@H](C)C=C3C=C[C@H](C)[C@H](CC[C@@H]4C[C@@H](O)CC(=O)O4)[C@H]32)C(C)(C)C)cc1 [Compound 15, (1S,3R,7S,8S,8aR)-8-(2-((2R,4R)-4-hydroxy-6-oxotetrahydro-2H-pyran-2-yl)ethyl)-3,7-dimethyl-1,2,3,7,8,8a-hexahydronaphthalen-1-yl (2-(2-(2-(((S)-1-((2S,4R)-4-hydroxy-2-((4-(4-methylthiazol-5-yl)benzyl)carbamoyl)pyrrolidin-1-yl)-3,3-dimethyl-1-oxobutan-2-yl)amino)-2-oxoethoxy)ethoxy)ethyl)carbamate] | < 50
8 | Cc1ncsc1-c1ccc(CNC(=O)[C@@H]2C[C@@H](O)CN2C(=O)[C@@H](NC(=O)COCCOCCOCCNC(=O)O[C@H]2C[C@@H](C)C=C3C=C[C@H](C)[C@H](CC[C@@H]4C[C@@H](O)CC(=O)O4)[C@H]32)C(C)(C)C)cc1 [Compound 16, (1S,3R,7S,8S,8aR)-8-(2-((2R,4R)-4-hydroxy-6-oxotetrahydro-2H-pyran-2-yl)ethyl)-3,7-dimethyl-1,2,3,7,8,8a-hexahydronaphthalen-1-yl ((S)-13-((2S,4R)-4-hydroxy-2-((4-(4-methylthiazol-5-yl)benzyl)carbamoyl)pyrrolidine-1-carbonyl)-14,14-dimethyl-11-oxo-3,6,9-trioxa-12-azapentadecyl)carbamate] | < 50
